Source: patent publication US8378117B2 (priority 2005, dated 2013)
Where two headings read alike, the source gives them in different places.

Legend:
CB2 receptor [1] = target: T1, CB2 receptor (Homo sapiens, UniProt P34972); experiment: Functional cell-based assay, CB2 receptor mediated change in CRE β-gal expression (SK-N-MC cells); details: for EC50: SK-N-MC cells
T1 construct: expressed in transfected cells
Source text: The CB1 and CB2 receptors are G-protein coupled receptors (GPCR), which influence cell function via the Gi-protein. These receptors modulate the activity of intracellular adenylate cyclase, which in turn produces the intracellular signal messenger cyclic-AMP (cAMP).
At baseline, or during non-ligand bound conditions, these receptors are constitutively active and tonically suppress adenylate cyclase activity. The binding of an agonist causes further receptor activation and produces additional suppression of adenylate cyclase activity. The binding of an inverse agonist inhibits the constitutive activity of the receptors and results in an increase in adenylate cyclase activity.
By monitoring intracellular adenylate cyclase activity, the ability of compounds to act as agonists or inverse agonists can be determined.
Test compounds were evaluated in SK-N-MC cells which, using standard transfection procedures, were stably transfected with human cDNA for pcDNA3-CRE β-gal and pcDNA3 CB1 receptor (human) or pcDNA3 CB2 receptor (human). By expressing CRE β-gal, the cells produced β-galactosidase in response to CRE promoter activation by cAMP. Cells expressing CRE β-gal and either the human CB1 or CB2 receptor will produce less β-galactosidase when treated with a CB1/CB2 agonist and will produce more β-galactosidase when treated with a CB1/CB2 inverse agonist.
The cells were grown in 96-well plates under standard cell culture conditions at 37° C. in a 5% CO2 atmosphere and culture media (wherein the media was supplemented with 2 mM L-glutamine, […] sodium pyruvate, 10% FBS (fetal bovine serum) and antibiotics).
For cells expressing CRE β-gal and the CB2 receptor, CB2 agonists reduced β-galactosidase activity in a dose-dependent manner and CB2 inverse agonists increase β-galactosidase activity in a dose-dependent manner.
The change in forskolin induced β-galactosidase activity was determined by setting a vehicle treated cell's activity value at 100% and expressing the β-galactosidase activity measured in a corresponding compound treated cell as a percent of the vehicle treated cell activity.
The EC50 value for functional activity for compounds tested was calculated by linear regression and was obtained from studies in which varying compound concentrations were used.

CB1 receptor [2] = target: T2, CB1 receptor (Homo sapiens, UniProt P21554); experiment: cell-based
T2 construct: expressed in transfected cells
T2 sequence (P21554 whole entry): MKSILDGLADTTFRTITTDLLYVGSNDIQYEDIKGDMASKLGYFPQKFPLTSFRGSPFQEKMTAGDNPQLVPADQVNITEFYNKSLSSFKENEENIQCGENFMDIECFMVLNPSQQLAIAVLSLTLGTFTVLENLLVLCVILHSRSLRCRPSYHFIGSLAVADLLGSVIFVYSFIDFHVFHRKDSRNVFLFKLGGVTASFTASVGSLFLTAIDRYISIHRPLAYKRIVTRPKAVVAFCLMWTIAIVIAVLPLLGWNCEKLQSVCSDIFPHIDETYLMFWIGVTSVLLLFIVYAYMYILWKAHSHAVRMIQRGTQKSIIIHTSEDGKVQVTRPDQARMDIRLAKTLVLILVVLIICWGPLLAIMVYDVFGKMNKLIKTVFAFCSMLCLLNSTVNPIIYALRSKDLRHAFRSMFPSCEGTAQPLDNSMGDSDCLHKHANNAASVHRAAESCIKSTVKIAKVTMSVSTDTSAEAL
Outline: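 SK-N-MC cells stably co-expressing human CB1 and a CRE-β-galactosidase reporter; forskolin-induced β-gal activity measured after compound treatment, as % of vehicle-treated cells (100%). EC50 by linear regression from concentration series; otherwise % change at a single concentration.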

CB1 receptor [3] = target: T2, CB1 receptor; experiment: Binding assay for CB1 agonists or inverse agonists (SK-N-MC membranes, [3H]-CP-55,940); details: for IC50: Cannabinoid CB1 Receptor Binding IC50, calculated by linear regression from percent inhibition at various test concentrations; for inhibition at 1 µM: read-out: CB1 receptor binding percent inhibition, test concentration 1 μM (footnote 1)
Outline: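 Membranes from SK-N-MC cells stably expressing human CB1 incubated with compound and [3H]-CP-55,940 ([…]) for 90 min at 30° C in Tris-HCl pH 7.5, MgCl2, EDTA, fatty-acid-free BSA. Non-specific binding defined with 10 uM WIN 55,212; filtration, scintillation count; IC50 by linear regression.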

CB2 receptor [4] = target: T1, CB2 receptor; experiment: Binding assay for CB2 agonists or inverse agonists (SK-N-MC membranes, [3H]-CP-55,940); details: for IC50: Cannabinoid CB2 Receptor Binding IC50, calculated by linear regression from percent inhibition at various test concentrations; for inhibition at 0.2 µM: read-out: CB2 receptor binding percent inhibition, test concentration 0.2 μM (footnote 2)
Outline: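 Membranes from SK-N-MC cells stably expressing human CB2 were incubated with radioligand and test compounds for 90 min at 30 °C in Tris-HCl buffer, pH 7.5, with MgCl2, EDTA and fatty-acid-free BSA. Filter-bound radioactivity was counted; IC50 was derived by linear regression of percent inhibition.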

[5] = CB2 Receptor Functional Agonist EC50, forskolin induced β-galactosidase activity
[6] = CB1 Receptor Functional Agonist EC50, SK-N-MC cells, forskolin induced β-galactosidase activity
[7] = read-out: CB1 receptor binding percent inhibition, test concentration 0.2 μM (footnote 2)
[8] = SK-N-MC cells, forskolin induced β-galactosidase activity, read-out: CB1 Receptor Functional Agonist EC50
[9] = CB1 Receptor Functional Inverse Agonist EC50, forskolin induced β-galactosidase activity, SK-N-MC cells

T1 sequence (P34972 whole entry): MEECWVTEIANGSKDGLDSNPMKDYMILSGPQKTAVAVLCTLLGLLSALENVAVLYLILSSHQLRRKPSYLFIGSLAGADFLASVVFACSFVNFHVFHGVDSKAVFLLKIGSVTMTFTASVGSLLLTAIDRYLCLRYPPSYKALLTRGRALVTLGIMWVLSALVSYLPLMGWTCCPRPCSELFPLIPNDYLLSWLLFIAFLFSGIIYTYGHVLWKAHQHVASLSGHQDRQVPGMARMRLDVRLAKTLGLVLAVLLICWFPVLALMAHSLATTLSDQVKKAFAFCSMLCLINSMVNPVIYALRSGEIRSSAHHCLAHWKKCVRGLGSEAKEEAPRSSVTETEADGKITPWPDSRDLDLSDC

SMILES | EC50 (CB2 receptor [1]; [5]) | EC50 (CB1 receptor [2]; [6]) | IC50 (CB1 receptor [3]) | inhibition at 0.2 µM (CB1 receptor [3]; [7]) | IC50 (CB2 receptor [4]) | inhibition at 0.2 µM (CB2 receptor [4]) | other results
COC[C@@H](NC(=O)c1n[nH]c2c1CCCC[C@@H]2Cc1cccc(Cl)c1)c1ccccc1 (stereo in doubt) [Cpd 251, (8R*)-(3-chloro-benzyl)-1,4,5,6,7,8-hexahydro-cycloheptapyrazole-3-carboxylic acid [(1S)-2-methoxy-1-phenyl-ethyl]-amide] | 3 nM | 410 nM |  |  |  |  | 
C[C@@H](NC(=O)c1n[nH]c2c1CCCC/C2=C\c1ccc(Cl)cc1)c1ccccc1 [Cpd 142, (8E)-8-(4-chloro-benzylidene)-1,4,5,6,7,8-hexahydro-cycloheptapyrazole-3-carboxylic acid [(1R)-1-phenyl-ethyl]-amide] |  |  | 10 nM |  |  |  | CB2 receptor change in functional activity (CB2 receptor [1]; one compound concentration, forskolin induced β-galactosidase activity): 1%; inhibition at 0.2 µM (CB1 receptor [3]; read-out: CB1 receptor binding percent inhibition): 83%; CB2 receptor binding percent inhibition (CB2 receptor [4]; test concentration 0.2 μM (footnote 2)): ^(2)98%
COC(=O)[C@H](Cc1ccc(F)cc1)NC(=O)c1n[nH]c2c1CCCC/C2=C\c1cccc(Cl)c1 [Cpd 240, (8E)-(2S)-2-{[8-(3-chloro-benzylidene)-1,4,5,6,7,8-hexahydro-cycloheptapyrazole-3-carbonyl]-amino}-3-(4-fluoro-phenyl)-propionic acid methyl ester] | 13 nM | 1600 nM | 200 nM | 35% | 40 nM | 78% | 
COC[C@@H](NC(=O)c1n[nH]c2c1CCCC[C@H]2Cc1cccc(Cl)c1)c1ccccc1 (stereo in doubt) [Cpd 252, (8S*)-(3-chloro-benzyl)-1,4,5,6,7,8-hexahydro-cycloheptapyrazole-3-carboxylic acid [(1S)-2-methoxy-1-phenyl-ethyl]-amide] | 19 nM | > 5000 nM |  |  |  |  | 
O=C(N[C@H](CCO)c1ccccc1)c1n[nH]c2c1CCCC/C2=C\c1cccc(Cl)c1 [Cpd 250, (8E)-8-(3-chloro-benzylidene)-1,4,5,6,7,8-hexahydro-cycloheptapyrazole-3-carboxylic acid [(1R)-3-hydroxy-1-phenyl-propyl]-amide] |  |  |  |  |  |  | EC50 (CB2 receptor [1]; forskolin induced β-galactosidase activity, read-out: CB2 Receptor Functional Agonist EC50): 130 nM; EC50 (CB1 receptor [2]; [8]): > 5000 nM
O=C(N[C@@H](CO)c1ccccc1)c1n[nH]c2c1CCCC/C2=C\c1ccc(Cl)cc1 [Cpd 234, (8E)-8-(4-chloro-benzylidene)-1,4,5,6,7,8-hexahydro-cycloheptapyrazole-3-carboxylic acid [(1R)-2-hydroxy-1-phenyl-ethyl]-amide] | 5 nM | 8 nM | 20 nM | 87% | 60 nM | 93% | 
COC(=O)[C@H](Cc1ccc(F)cc1)NC(=O)c1n[nH]c2c1CCCC/C2=C\c1ccc(Cl)cc1 [Cpd 238, (8E)-(2S)-2-{[8-(4-chloro-benzylidene)-1,4,5,6,7,8-hexahydro-cycloheptapyrazole-3-carbonyl]-amino}-3-(4-fluoro-phenyl)-propionic acid methyl ester] | 1 nM | 150 nM | 30 nM | 85% | 10 nM | 93% | 
O=C(N[C@@H](CO)c1ccccc1)c1n[nH]c2c1CCCC/C2=C\c1cccc(Cl)c1 [Cpd 239, (8E)-8-(3-chloro-benzylidene)-1,4,5,6,7,8-hexahydro-cycloheptapyrazole-3-carboxylic acid [(1R)-2-hydroxy-1-phenyl-ethyl]-amide] | 0.6 nM | 20 nM | 30 nM | 80% | 20 nM | 91% | 
COC(=O)[C@H](Cc1ccc(F)cc1)NC(=O)c1nn(C)c2c1CCCC/C2=C\c1cccc(F)c1 [Cpd 241, (8E)-(2S)-2-{[8-(3-fluoro-benzylidene)-1-methyl-1,4,5,6,7,8-hexahydro-cycloheptapyrazole-3-carbonyl]-amino}-3-(4-fluoro-phenyl)-propionic acid methyl ester] | 18 nM | 2800 nM | 200 nM | 33% | 100 nM | 62% | 
COC[C@H](NC(=O)c1n[nH]c2c1CCCC[C@H]2Cc1cccc(Cl)c1)c1ccccc1 (stereo in doubt) [Cpd 253, (8S*)-(3-chloro-benzyl)-1,4,5,6,7,8-hexahydro-cycloheptapyrazole-3-carboxylic acid [(1R)-2-methoxy-1-phenyl-ethyl]-amide] | 200 nM | > 5000 nM |  |  |  |  | 
Cn1nc(C(=O)N[C@H](CCO)c2ccccc2)c2c1/C(=C/c1cccc(F)c1)CCCC2 [Cpd 249, (8E)-8-(3-fluoro-benzylidene)-1-methyl-1,4,5,6,7,8-hexahydro-cycloheptapyrazole-3-carboxylic acid [(1R)-3-hydroxy-1-phenyl-propyl]-amide] | 47 nM | > 5000 nM |  |  |  |  | 
COC[C@H](NC(=O)c1n[nH]c2c1CCCC[C@@H]2Cc1cccc(Cl)c1)c1ccccc1 (stereo in doubt) [Cpd 254, (8R*)-(3-chloro-benzyl)-1,4,5,6,7,8-hexahydro-cycloheptapyrazole-3-carboxylic acid [(1R)-2-methoxy-1-phenyl-ethyl]-amide] | 2 nM | 80 nM |  |  |  |  | 
O=C(NN1CCOCC1)c1nn(-c2ccc(F)cc2F)c2c1CCCCC2Cc1cccc(F)c1 (stereo not shown) [Cpd 116, 1-(2,4-difluoro-phenyl)-8-(3-fluoro-benzyl)-1,4,5,6,7,8-hexahydro-cycloheptapyrazole-3-carboxylic acid morpholin-4-ylamide] |  |  |  |  |  |  | inhibition at 1 µM (CB1 receptor [3]): 14%; CB2 receptor binding percent inhibition (CB2 receptor [4]; test concentration not stated): 24%; EC50 (CB1 receptor [2]; [8]): 300 nM
O=C(NCc1ccc(C(F)(F)F)cc1)c1nn(-c2ccc(Cl)cc2Cl)c2c1CCCCC2Cc1ccc(Cl)cc1 (stereo not shown) [Cpd 26, 8-(4-chloro-benzyl)-1-(2,4-dichloro-phenyl)-1,4,5,6,7,8-hexahydro-cycloheptapyrazole-3-carboxylic acid 4-trifluoromethyl-benzylamide] |  |  |  |  |  |  | inhibition at 1 µM (CB1 receptor [3]): 70%; inhibition at 2 µM (CB1 receptor [3]; read-out: CB1 receptor binding percent inhibition, test concentration 2 μM (footnote 6)): 55%; CB1 receptor binding percent inhibition (CB1 receptor [3]; test concentration not stated): 63%; inhibition at 1 µM (CB2 receptor [4]; test concentration 1 μM (footnote 1), read-out: CB2 receptor binding percent inhibition): 35%; inhibition at 2 µM (CB2 receptor [4]; test concentration 2 μM (footnote 6), read-out: CB2 receptor binding percent inhibition): 22%; CB2 receptor binding percent inhibition (CB2 receptor [4]; test concentration not stated): 29%; EC50 (CB1 receptor [2]; forskolin induced β-galactosidase activity, SK-N-MC cells, read-out: CB1 Receptor Functional Inverse Agonist EC50): 600 nM
COC(=O)[C@@H](Cc1ccc(F)cc1)NC(=O)c1nn(-c2ccc(Cl)cc2Cl)c2c1CCCC[C@H]2Cc1cccc(F)c1 [Cpd 78, (2R)-2-{[(8S)-1-(2,4-dichloro-phenyl)-8-(3-fluoro-benzyl)-1,4,5,6,7,8-hexahydro-cycloheptapyrazole-3-carbonyl]-amino}-3-(4-fluoro-phenyl)-propionic acid methyl ester] |  |  | 400 nM |  |  |  | CB1 receptor binding average percent inhibition (CB1 receptor [3]; value shown is an average percent inhibition (footnote 5), concentration not given): 59%; CB2 receptor binding percent inhibition (CB2 receptor [4]; test concentration not stated): 23%; EC50 (CB1 receptor [2]; [9]): 200 nM
O=C(NCc1ccccn1)c1nn(-c2ccc(Cl)cc2Cl)c2c1CCCC/C2=C\c1ccc(Cl)cc1 [Cpd 155, (8E)-8-(4-chloro-benzylidene)-1-(2,4-dichloro-phenyl)-1,4,5,6,7,8-hexahydro-cycloheptapyrazole-3-carboxylic acid (pyridin-2-ylmethyl)-amide] |  |  | 70 nM | 72% |  | 8% | EC50 (CB1 receptor [2]; [9]): 30 nM
